Where a name gives a salt, the structure may show the parent alone.
Key:
[1] = Conversion of prodrugs to compound 1 in human plasma; format: in vitro ADME; settings: human plasma (Na-Heparin treated), 37° C.
Experimental: (§1) Step 1. Sample preparation. A quantity of blank human plasma (Na-Heparin treated) was incubated at 37° C. for 30 minutes. An amount of the compound sample was precisely weighed to correspond to around 5.00 mg of the hydroxamate of compound 1, taking into account the mass of the leaving group and the salt factor if applicable. The sample was placed in a 16×125 mm glass screw cap tube. The incubated blank human plasma was added so that the final concentration of hydroxamate 1 was 1.00 mg/mL. The sample was sonicated for 30 seconds, shaken for 30 seconds on a Vortex apparatus, and run through the HPLC procedure of Step 2 to get a time point zero value. The samples were stored in an incubator at 37° C., and the HPLC analysis of Step 2 was repeated in 30 minutes and 1 hour.
(§2) Step 2. Protein precipitation and HPLC analysis of plasma. A 50 μL aliquot of plasma was taken in a 1.5 mL Eppendorf vial, to which was added 200 μL of MeCN. The vial was capped and shaken on a Vortex apparatus for 30 seconds, then centrifuged at 13000 rpm (15700 rcf) for five minutes. When centrifuging was complete, 100 μL of the supernatant was placed in an injection vial containing an insert, to which was added 100 μL of 0.1% formic acid in water. The vial was capped and shaken on a Vortex apparatus for 30 seconds, and the contents were injected into the HPLC-UV instrument, and a comparison was made of the retention time, peak areas and level of degradation (if any) using the GDADI50 method.
Step 3. Reference sample preparation. An amount of the compound sample was precisely weighed to correspond to around 5.00 mg of the hydroxamate of compound 1, taking into account the mass of the leaving group and the salt factor if applicable. The sample was placed in a 16×125 mm glass screw cap tube. A quantity of MeCN/H2O 50/50 v/v was added so that the final concentration of hydroxamate 1 was 1.00 mg/mL. An injection vial was filled with 100 μL of this sample stock solution and 900 μL of a solution of 40/60 MeCN/0.1% formic acid in water. The vial was capped and the contents were injected into the HPLC-UV instrument, and a comparison was made of the retention time, peak areas and level of degradation (if any) using the GDADI50 method.

[2] = Conversion of prodrugs to compound 1 in mouse plasma; format: in vitro ADME; settings: mouse plasma (Na-Heparin treated); for Prodrug loss at 0.5 hr / Prodrug loss at 1 hr: 37° C.; for Prodrug solubility in plasma: equivalent to 1.00 mg/mL of compound 1, * = Plasma quickly became cloudy
Experimental: as §1, with “blank mouse” for “blank human”, “repeated at” for “repeated in”, “1 hour” for “1 hour.”
as §2

[3] = Saline solubility at 1.00 mg/mL and 0.50 mg/mL (with pH by indicator paper); format: physicochemical; settings: for pH at 1.00 mg/mL of MGCD290 in saline: final concentration of hydroxamate 1 1.00 mg/mL, pH indicator paper; for solubility at 1 h: saline or isotonic, thermodynamic from solid, 1.00 mg/mL as hydroxamate 1, shaken 1 hour, centrifuged, soluble = no precipitate formed, read-out: Soluble at 1.00 mg/mL of MGCD290 (Y/N)
Outline: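 Prodrug was weighed to give 1.00 mg/mL hydroxamate equivalent in saline, vortexed 1 h and centrifuged, and diluted to 0.50 mg/mL if it precipitated. pH was checked by indicator paper. Stability in solution diluted 1:1 with saline was followed by HPLC-UV at 0, 6 and 24 h.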

[4] = Saline solubility at 10.00 mg/mL, 5.00 mg/mL and 2.50 mg/mL (with pH by pH meter); format: physicochemical; settings: saline or isotonic, thermodynamic from solid, concentration expressed as equivalent of Cpd 1, highest tested concentration soluble, read-out: Highest prodrug solubility in saline (equivalent of Cpd 1)
Experimental: The following procedures were used
Step 1. Sample preparation. An amount of the compound sample was precisely weighed to correspond to around 10 mg of the hydroxamate of compound 1, taking into account the mass of the leaving group and the salt factor if applicable. The sample was placed in a 16×125 mm glass screw cap tube. Saline was added so that the final concentration of hydroxamate 1 was 10.00 mg/mL. The tube was shaken for 1 hour on a Vortex apparatus then centrifuged at 3000 rpm (1800 rcf) for 5 minutes. If the compound example was soluble (no precipitate formed) then the pH was measured with a pH meter, and the procedure continued to step 2. If a precipitate formed then the sample was diluted with saline so that the final concentration of the hydroxamate of compound 1 became 5.00 mg/mL, and the shaking and centrifuging steps were repeated. If the compound example was soluble (no precipitate formed) then the pH was measured with a pH meter, and the procedure continued to step 2. If a precipitate formed then the sample was diluted with saline so that the final concentration of the hydroxamate of compound 1 became 2.50 mg/mL, and the shaking and centrifuging steps were repeated. If the compound example was soluble (no precipitate formed) then the pH was measured with a pH meter, and the procedure continued to step 2

Compound | Prodrug loss at 0.5 hr [1] [%] | Prodrug loss at 1 hr [1] [%] | Prodrug loss at 0.5 hr [2] [%] | Prodrug loss at 1 hr [2] [%] | Prodrug solubility in plasma [2] | pH at 1.00 mg/mL of MGCD290 in saline [3] | solubility at 1 h [3] [µg/mL] | solubility at 1 h [4] [µg/mL]
COCCOCCOCC(=O)NCCCC[C@H](NC(=O)COCCOCCOC)C(=O)N(C)CCCC(=O)ONC(=O)Cc1ccc(CCCCc2ccccc2)cc1 [Compound 64, (S)—N,N′-(6-(Methyl(4-oxo-4-(2-(4-(4-phenylbutyl)phenyl)acetamidooxy)butyl)amino)-6-oxohexane-1,5-diyl)bis(2-(2-(2-methoxyethoxyl)ethoxy)acetamide)] | 78.7 | 100.0 | 100 | 100 | Yes | 4.5-5 | > 1000 | 10000
COCCOCCOCC(=O)NCCCC[C@H](NC(=O)COCCOCCOC)C(=O)NCCC(=O)ONC(=O)Cc1ccc(CCCCc2ccccc2)cc1 [Compound 63, (S)—N,N′-(6-Oxo-6-(3-oxo-3-(2-(4-(4-phenylbutyl)phenyl)acetamidooxy)propylamino)hexane-1,5-diyl)bis(2-(2-(2-methoxyethoxyl)ethoxy)acetamide)] | 99.3 | 100.0 | 100 | 100 | Yes* |  | > 1000 | 1000
COCCOCCOCC(=O)NCCCC[C@H](NC(=O)COCCOCCOC)C(=O)NCCCC(=O)ONC(=O)Cc1ccc(CCCCc2ccccc2)cc1 [Compound 99, (S)—N,N-(6-Oxo-6-(4-oxo-4-(2-(4-(4-phenylbutyl)phenyl)acetamidooxy)butylamino)hexane-1,5-diyl)bis(2-(2-(2-methoxyethoxyl)ethoxy)acetamide)] | 22.7 | 89.1 | 100 | 100 | Yes* | 4.5-5 | > 1000 | 2500
NCC1(C(=O)ONC(=O)Cc2ccc(CCCCc3ccccc3)cc2)CC1 [Compound 54, N-(1-(aminomethyl)cyclopropanecarbonyloxy)-2-(4-(4-phenylbutyl)phenyl)acetamide] | 50.9 | 71.6 | 62.6 | 100 | Yes | 4-4.5 | > 1000 | 2500
NCCNCC(=O)NCCC(=O)ONC(=O)Cc1ccc(CCCCc2ccccc2)cc1 [Compound 135, 2-(2-aminoethylamino)-N-(3-oxo-3-(2-(4-(4-phenylbutyl)phenyl)acetamidooxy)propyl) acetamide dihydrochloride] | 98.7 | 99.8 | 100 | 100 | Yes* | 4.5-5 | > 1000 | 10000
NCCCC[C@H](N)C(=O)NCCC(=O)ONC(=O)Cc1ccc(CCCCc2ccccc2)cc1 [Compound 14, (S)-2,6-Diamino-N-(3-oxo-3-(2-(4-(4-phenylbutyl)phenyl)acetamidooxy)propyl)hexanamide di-hydrochloride] | 100 | 100.0 | 100 | 100 | Yes* | 4-4.5 | > 1000 | 10000
COCCOCC(=O)NCCCC[C@H](NC(=O)COCCOC)C(=O)NCCC(=O)ONC(=O)Cc1ccc(CCCCc2ccccc2)cc1 [Compound 68] | 98.6 | 99.4 | 100 | 100 | Yes* | 4.5-5 | > 1000 | 10000
COCCOCCOCCOCCOCCOCC(=O)N1CCC(C(=O)ONC(=O)Cc2ccc(CCCCc3ccccc3)cc2)CC1 [Compound 120] |  |  | 100 | 100 | Yes | 4.5-5 | > 1000 | 
COCCOCCOCCOCCOCCOCC(=O)N1CCC(CCC(=O)ONC(=O)Cc2ccc(CCCCc3ccccc3)cc2)CC1 [Compound 111, N-(3-(1-2,5,8,11,14,17-Hexaoxanonadecanepiperidin-4-yl)propanoyloxy)-2-(4-(4-phenylbutyl)phenyl)acetamide] | 65.5 | 90.5 | 98 | 99 | Yes* | 4.5-5 | > 1000 | 10000
Cl.O=C(Cc1ccc(CCCCc2ccccc2)cc1)NOC(=O)CCC1CCNCC1 [Compound 110, 2-(4-(4-Phenylbutyl)phenyl)-N-(3-(piperidin-4-yl)propanoyloxy) acetamide hydrochloride] | 85.5 | 99.6 | 100 | 100 | Yes* | 4.5-5 | > 1000 | 10000
COCCOCC(=O)NCCCC[C@H](NC(=O)COCCOC)C(=O)NCCCC(=O)ONC(=O)Cc1ccc(CCCCc2ccccc2)cc1 [Compound 100] | 69.4 | 93.4 | 100 | 100 | Yes* | 4.5-5 | > 1000 | 1000
COCCOCCOCCOCCOCCOCC(=O)N1CCC(CCCC(=O)ONC(=O)Cc2ccc(CCCCc3ccccc3)cc2)CC1 [Compound 122] | 66.6 | 91.9 | 100 | 100 | Yes** | 5.-5.5 | > 1000 | 10000

From patent publication US20150203517A1, “Prodrugs of Compounds that Enhance Antifungal Activity and Compositions of Said Prodrugs” (priority 2014, published 2015)
